Laboratory results published in patent publication US20240252488A1 (KOREA RESEARCH INSTITUTE OF CHEMICAL TECHNOLOGY, priority 2020, published 2024).

Key:
FADD−/− Jurkat cells = assay: Necroptosis inhibition assay, TNF-α-induced necroptosis (CellTiter-Glo 2.0); format: cell-based, human; details: TNF-α 15 ng/mL; for Necroptosis inhibition assay (Rescue %) 1 μM: compound 1 μM; for Necroptosis inhibition assay (Rescue %) 10 μM: compound 10 μM
In short: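 Cells at 5.0×10^5 cells/mL were pretreated with compound (final 0.1, 1 and 10 μM) for 30 minutes at room temperature, then given TNF-α at 15 ng/mL final. After 20 to 24 hours at 37° C, 5% CO2, viability was read as ATP luminescence to calculate cytotoxicity and necroptosis inhibition rate.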

MLKL [1] = target: T1, MLKL (Homo sapiens, UniProt Q8NB16); assay: MLKL degradation assay in HepG2 cell line (western blot); format: cell-based; parameters: endogenous in cells; host or cells: HepG2 or HaCaT; details: cell line not given; for Degradation assay (Degradation %) 1 μM: compound 1 μM; for Degradation assay (Degradation %) 10 μM: compound 10 μM
T1 sequence (Q8NB16 1-471): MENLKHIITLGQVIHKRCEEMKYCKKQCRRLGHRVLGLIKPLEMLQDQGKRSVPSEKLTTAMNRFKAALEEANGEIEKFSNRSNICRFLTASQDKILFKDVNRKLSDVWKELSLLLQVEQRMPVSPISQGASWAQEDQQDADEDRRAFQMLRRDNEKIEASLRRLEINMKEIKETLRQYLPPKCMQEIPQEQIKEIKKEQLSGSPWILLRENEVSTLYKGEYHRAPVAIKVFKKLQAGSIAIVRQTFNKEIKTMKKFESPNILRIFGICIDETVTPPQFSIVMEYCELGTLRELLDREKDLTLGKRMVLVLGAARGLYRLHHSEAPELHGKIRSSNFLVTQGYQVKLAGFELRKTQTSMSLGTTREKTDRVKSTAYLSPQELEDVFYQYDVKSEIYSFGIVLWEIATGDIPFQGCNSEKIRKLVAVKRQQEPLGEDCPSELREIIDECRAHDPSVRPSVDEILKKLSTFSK
In short: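 HepG2 cells were exposed to compound at a final 1 or 10 μM for 20-24 hours at 37 °C, 5% CO2. RIPA lysates were normalized by BCA assay, 10-15 μg protein resolved by SDS-PAGE, and MLKL levels detected by western blot with chemiluminescence.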

MLKL [2] = target: T1, MLKL; assay: Measurement of binding affinity with MLKL receptor (competitive binding assay, Kd); parameters: made in house; host or cells: HEK 293 cell line (T7 phage in E. coli BL21-derived host is also described)
In short: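 Kd comes from a bead-based competition format: compound-dependent loss of DNA-tagged, HEK 293-expressed MLKL capture, measured as eluate kinase by qPCR. Final DMSO is 0.9%.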

SMILES	Necroptosis inhibition assay (Rescue %) 1 μM (FADD−/− Jurkat cells; FADD−/− Jurkat cells) [%]	Necroptosis inhibition assay (Rescue %) 10 μM (FADD−/− Jurkat cells; FADD−/− Jurkat cells) [%]	Degradation assay (Degradation %) 1 μM (MLKL [1]) [%]	Degradation assay (Degradation %) 10 μM (MLKL [1]) [%]	Kd (MLKL [2]) [nM]	Necroptosis inhibition assay (Rescue %) 1 μM (FADD−/− Jurkat cells) [%]	Necroptosis inhibition assay (Rescue %) 10 μM (FADD−/− Jurkat cells) [%]
Nc1ncc(-c2cnn(C3CCN(CCC4CCN(C5=CC(=O)N(C6CCC(=O)NC6=O)C5=O)CC4)CC3)c2)nc1C(=O)O[C@@H](C(=O)Nc1ccc(F)cc1)c1ccccc1 (stereo partly drawn) [TDH-522, (R)-2-((4-fluorophenyl)amino)-2-oxo-1-phenylethyl 3-amino-6-(1-(1-(2-(1-(1-(2,6-dioxopiperidin-3-yl)-2,5-dioxo-2,5-dihydro-1H-pyrrol-3-yl)piperidin-4-yl)ethyl)piperidin-4-yl)-1H-pyrazol-4-yl)pyrazine-2-carboxylate]	21.52	−21.15	84.27	51.16	1.3		
Nc1ncc(-c2cnn(C3CCN(CC4CCN(C(=O)C5CCN(c6cccc7c6C(=O)N(C6CCC(=O)NC6=O)C7=O)CC5)CC4)CC3)c2)nc1C(=O)N[C@@H](C(=O)Nc1ccc(F)cc1)c1ccccc1 (stereo partly drawn) [TDH-209, 3-amino-6-(1-(1-((1-(1-(2-(2,6-dioxopiperidin-3-yl)-1,3-dioxoisoindolin-4-yl)piperidine-4-carbonyl)piperidin-4-yl)methyl)piperidin-4-yl)-1H-pyrazol-4-yl)-N-((R)-2-((4-fluorophenyl)amino)-2-oxo-1-phenylethyl)pyrazine-2-carboxamide]			7.36		140	7.73	18.12
Nc1ncc(-c2cnn(C3CCN(CCOC4CCN(C(=O)CCc5ccc6c(c5)C(=O)N(C5CCC(=O)NC5=O)C6=O)CC4)CC3)c2)nc1C(=O)O[C@@H](C(=O)Nc1ccc(F)cc1)c1ccccc1 (stereo partly drawn) [TDH-379, (R)-2-((4-fluorophenyl)amino)-2-oxo-1-phenylethyl 3-amino-6-(1-(1-(2-((1-(3-(2-(2,6-dioxopiperidin-3-yl)-1,3-dioxoisoindolin-5-yl)propanoyl)piperidin-4-yl)oxy)ethyl)piperidin-4-yl)-1H-pyrazol-4-yl)pyrazine-2-carboxylate]			69.78	88.75	2.9	36.70	28.98
Nc1ncc(-c2cnn(C3CCN(CCOCCNc4cccc5c4C(=O)N(C4CCC(=O)NC4=O)C5=O)CC3)c2)nc1C(=O)O[C@@H](C(=O)Nc1ccc(F)cc1)c1ccccc1 (stereo partly drawn) [TDH-130, (R)-2-((4-fluorophenyl)amino)-2-oxo-1-phenylethyl 3-amino-6-(1-(1-(2-(2-((2-(2,6-dioxopiperidin-3-yl)-1,3-dioxoisoindolin-4-yl)amino)ethoxy)ethyl)piperidin-4-yl)-1H-pyrazol-4-yl)pyrazine-2-carboxylate]			58.3	24.87	11	40.74	27.69
Nc1ncc(-c2cnn([C@@H]3CCN(CCOCCOCCNC(=O)COc4ccc5c(c4)C(=O)N(C4CCC(=O)NC4=O)C5=O)C3)c2)nc1C(=O)OC(C(=O)Nc1ccc(F)cc1)c1ccccc1 (stereo partly drawn) [TDH-270, 2-((4-fluorophenyl)amino)-2-oxo-1-phenylethyl 3-amino-6-(1-((3R)-1-(2-(2-(2-(2-((2-(2,6-dioxopiperidin-3-yl)-1,3-dioxoisoindolin-5-yl)oxy)acetamido)ethoxy)ethoxy)ethyl)pyrrolidin-3-yl)-1H-pyrazol-4-yl)pyrazine-2-carboxylate]			19.32	39.14	6.1	38.56	99.37
Nc1ncc(-c2cnn(C3CCN(CCOCCOCCOCCNC(=O)COc4cccc5c4C(=O)N(C4CCC(=O)NC4=O)C5=O)CC3)c2)nc1C(=O)O[C@@H](C(=O)Nc1ccc(F)cc1)c1ccccc1 (stereo partly drawn) [TDH-155, (R)-2-((4-fluorophenyl)amino)-2-oxo-1-phenylethyl 3-amino-6-(1-(1-(1-((2-(2,6-dioxopiperidin-3-yl)-1,3-dioxoisoindolin-4-yl)oxy)-2-oxo-6,9,12-trioxa-3-azatetradecan-14-yl)piperidin-4-yl)-1H-pyrazol-4-yl)pyrazine-2-carboxylate]			31.35	63.85	9.5	31.1	64.6
Nc1ncc(-c2cnn(C3CCN(CCCN4CCN(C(=O)Cc5cccc(NC6=CC(=O)N(C7CCC(=O)NC7=O)C6=O)c5)CC4)CC3)c2)nc1C(=O)O[C@@H](C(=O)Nc1ccc(F)cc1)c1ccccc1 (stereo partly drawn) [TDH-495, (R)-2-((4-fluorophenyl)amino)-2-oxo-1-phenylethyl 3-amino-6-(1-(1-(3-(4-(2-(3-((1-(2,6-dioxopiperidin-3-yl)-2,5-dioxo-2,5-dihydro-1H-pyrrol-3-yl)amino)phenyl)acetyl)piperazin-1-yl)propyl)piperidin-4-yl)-1H-pyrazol-4-yl)pyrazine-2-carboxylate]	42.19	17.62	81.34	85.73	1.3		
Nc1ncc(-c2cnn(C3CCN(CCCN4CCN(C(=O)c5ccc6c(N7CCC(=O)NC7=O)coc6c5)CC4)CC3)c2)nc1C(=O)O[C@@H](C(=O)Nc1ccc(F)cc1)c1ccccc1 [TDH-551, (R)-2-((4-fluorophenyl)amino)-2-oxo-1-phenylethyl 3-amino-6-(1-(1-(3-(4-(3-(2,4-dioxotetrahydropyrimidin-1(2H)-yl)benzofuran-6-carbonyl)piperazin-1-yl)propyl)piperidin-4-yl)-1H-pyrazol-4-yl)pyrazine-2-carboxylate]	40.61	10.85	88.03	83.80	0.3		
Nc1ncc(-c2cnn(C3CCN(C(=O)CCC4CCN(C(=O)CNc5ccc6c(c5)C(=O)N(C5CCC(=O)NC5=O)C6=O)CC4)CC3)c2)nc1C(=O)O[C@@H](C(=O)Nc1ccc(F)cc1)c1ccccc1 (stereo partly drawn) [TDH-422, (R)-2-((4-fluorophenyl)amino)-2-oxo-1-phenylethyl 3-amino-6-(1-(1-(3-(1-((2-(2,6-dioxopiperidin-3-yl)-1,3-dioxoisoindolin-5-yl)glycyl)piperidin-4-yl)propanoyl)piperidin-4-yl)-1H-pyrazol-4-yl)pyrazine-2-carboxylate]	50.21	40.34	91.95	89.12	4.1		
